Measurements from US20190060325A1, “STABILIZED SOLID DOSAGE FORM” (SHIONOGI & CO., LTD., priority 2016, published 2019).

Assay: Effect of excipients on suppression of related substance formation (compound (IV) alone or mixed with excipient, stored at 60° C. for two weeks, HPLC)
Assay type: physicochemical
Details: compound (IV) only; for Relative amount (%) of related substance C after storage of 60° C./2 W: 60° C. two weeks
Description: Effect of excipients on suppression of related substance formation was examined. The excipients were physically (dry) mixed or were wet-kneaded using purified water with the compound (IV) in designated ratios in Table 1. The wet-kneaded materials were dried at 60° C. with ventilation. The dried materials were subdivided in glass bottles and the bottles were capped. The capped samples were stored at 60° C. for two weeks and the effect on suppression of related substance formation was estimated by the increased amount of related substances.
The relative amounts of the related substances in a 25 mg tablet obtained in the following Examples were determined by HPLC under the following conditions.
Detector: Ultraviolet spectrophotometer (wavelength: 245 nm)
Column: Unison UK-C18, 3 μm, 4.6×100 mm (Imtakt)
Column temperature: 40° C. Solution A: 0.1% trifluoroacetic acid solution
Flow rate: About 1.0 mL/min
• Compound (IV): 9 to 10 min; • Related substance A: 20 to 21 min; • Related substance B: 21 to 22 min; • Related substance C: 22 to 23 min; • Related substance D: 28 to 29 min; • Related substance E: 36 to 37 min. Injection volume: 10 μL Analytical time: 45 min
Related substances of compound (IV) were calculated by the following equation.
As: Peak area of compound (IV) in a standard solution Ai: Peak area of individual related substance ΣAi: Sum of peak area of individual related substance

Relative amount (%) of related substance C after storage of 60° C./2 W (milled, capped glass bottle, % peak area of HPLC): 0.19% | Relative amount (%) of related substance C, Initial (milled, before storage): (Initial: 0.05%) | Relative amount (%) of related substance C after storage of 60° C./2 W (wet-kneaded): 0.16%
SMILES: C[C@@]1(c2cc(NC(=O)c3ccc(C#N)cn3)ccc2F)C=CSC(N)=N1 [compound (IV)]
